Test results published in ChEMBL document CHEMBL1133000, “Inhibition of protein kinase C(alpha) by dequalinium analogues: dependence on linker length and geometry” (J Med Chem, 2000).

The compounds below were run against Protein kinase C alpha type (Homo sapiens, UniProt P17252) (assay: Inhibition of human recombinant PKCalpha).

Question: How did the IC50 turn out when `Cc1cc(N)c2ccccc2[n+]1CCCC/C=C\CCCC[n+]1c(C)cc(N)c2ccccc21` was run?
Answer: Its IC50 is 52 µM.

Question: How did the IC50 turn out when `Cc1cc(N)c2ccccc2[n+]1CCCC/C=C/CCCC[n+]1c(C)cc(N)c2ccccc21` was run?
Answer: Its IC50 is 12 µM.

Question: How did the IC50 turn out when `CCCC/C=C/CCCC[n+]1c(C)cc(N)c2ccccc21` was run?
Answer: The IC50 was 137 µM.
